What was measured:
[1] = Preclinical pharmacokinetics after inhalation in rats; settings: equal dose by inhalation
[2] = rat, in vivo
[3] = test system: P. aeruginosa strain (mucoid strain 3064); assay: Rat model of chronic pulmonary infection with Pseudomonas (agar beads); format: in vivo, rats
P. aeruginosa = assay: Amikacin susceptibility testing (MIC) of P. aeruginosa sputum isolates; format: cell-based; settings: for MIC: Pseudomonas aeruginosa
Method: Quantitative culture of sputum samples and subsequent amikacin susceptibility testing of each morphologically distinct P. aeruginosa were performed. The MIC of amikacin for the isolates with the highest MIC cultured from each subject at screening and Day 14 was documented. The density (CFU per gram of sputum) of P. aeruginosa in sputum was calculated as the log10 value for the sum of all morphotypes.

Row | SMILES | AUC of drug in the kidneys vs Liposomal Amikacin aerosol [1] | time to undetectable lung levels after cessation of administration [2] [h] | bacteria in lungs ([3]; 60 mg/kg (given twice per day) daily for 28 days) | bacterial density (log10CFU/lung) vs saline control ([3]; BID for 14 days, 30 mg/kg per dose) | MIC (P. aeruginosa; 0 h, Study 1, baseline (Day 0)) [µg/mL] | MIC (P. aeruginosa; 336 h, Study 1, Day 14) [µg/mL] | MIC (P. aeruginosa; Study 2, baseline) [µg/mL] | mean MIC of amikacin for P. aeruginosa isolates (P. aeruginosa; Study 1, baseline (Day 0)) [µg/mL]
1 | NC[C@H]1O[C@H](O[C@H]2[C@H](O)[C@@H](O[C@H]3O[C@H](CO)[C@@H](O)[C@H](N)[C@H]3O)[C@H](N)C[C@@H]2N)[C@H](N)C[C@@H]1O [tobramycin] | significantly higher | ≤ 6 | below the limit of detection | significant reduction |  |  |  | 
2 | NCC[C@H](O)C(=O)N[C@@H]1C[C@H](N)[C@@H](O[C@H]2O[C@H](CN)[C@@H](O)[C@H](O)[C@H]2O)[C@H](O)[C@H]1O[C@H]1O[C@H](CO)[C@@H](O)[C@H](N)[C@H]1O [amikacin] |  |  |  |  | 8 | 30.8 | 41 | 8.04

Source: patent US9333214B2 (priority 2007, dated 2016)
